The source of these data is US7659404B2, “Broad spectrum 2-(substituted-amino)-benzothiazole sulfonamide HIV protease inhibitors” (Tibotec Pharmaceuticals Ltd., priority 2001, dated 2010).

Like-named read-outs stand apart in the source and are kept apart here.

Experiment [1] relates to virus strain F (R13025). The experiment is described as follows: microbe, parasite or virus in culture. The experiment is classed as cell-based, HIV. To be noted: for EC50: Human immunodeficiency virus 1, MT4, read-out: HIV-AVE-MT4-MTT-R13025-2-002 pEC50, virus strain F (R13025), MT4 cells, MTT (converted). As for the experimental part: (§1) HIV- or mock-infected MT4 cells were incubated for five days in the presence of various concentrations of the inhibitor. […] Cell viability is measured by measuring the concentration of MTT, a yellow, water soluble tetrazolium dye that is converted to a purple, water insoluble formazan in the mitochondria of living cells only. Upon solubilization of the resulting formazan crystals with isopropanol, the absorbance of the solution is monitored at 540 nm. The values correlate directly to the number of living cells remaining in the culture at the completion of the five day incubation. The inhibitory activity of the compound was monitored on the virus-infected cells and was expressed as EC50 and EC90. These values represent the amount of the compound required to protect 50% and 90%, respectively, of the cells from the cytopathogenic effect of the virus. The toxicity of the compound was measured on the mock-infected cells and was expressed as CC50, which represents the concentration of compound required to inhibit the growth of the cells by 50%. The selectivity index (SI) (ratio CC50/EC50) is an indication of the selectivity of the anti-HIV activity of the inhibitor.
(§2) Because of the increasing emergence of drug resistant HIV strains, the present compounds were tested for their potency against clinically isolated HIV strains harboring several mutations.
(§3) As a measure of the broad spectrum activity of the present compounds, the fold resistance (FR) defined as FR=EC50(mutant strain)/EC50(HIV-1 strain LAI).

The test system of experiment [2] is virus strain S (R13080). Kind of experiment: microbe, parasite or virus in culture. The experiment is classed as cell-based, HIV. The following applies: Human immunodeficiency virus 1, MT4, read-out: HIV-AVE-MT4-MTT-R13080-2-002 pEC50, virus strain S (R13080), MT4 cells, MTT (converted). The procedure: as §1, §2, §3
Experiment [3] deals with wild type virus (IIIB). The experiment is described as follows: HIV-AVE-MT4-MTT cellular assay, wild type virus (IIIB). The class given is cell-based. The following applies: for EC50: Human immunodeficiency virus 1, IIIB; for HIV-AVE-MT4-MTT-IIIB-2-002 pEC50: wild type virus (IIIB). As for the experimental part:
HIV- or mock-infected MT4 cells were incubated for five days in the presence of various concentrations of the inhibitor. At the end of the incubation period, all HIV-infected cells have been killed by the replicating virus in the control cultures in the absence of any inhibitor. Cell viability is measured by measuring the concentration of MTT, a yellow, water soluble tetrazolium dye that is converted to a purple, water insoluble formazan in the mitochondria of living cells only. Upon solubilization of the resulting formazan crystals with isopropanol, the absorbance of the solution is monitored at 540 nm. The values correlate directly to the number of living cells remaining in the culture at the completion of the five day incubation. The inhibitory activity of the compound was monitored on the virus-infected cells and was expressed as EC50 and EC90. These values represent the amount of the compound required to protect 50% and 90%, respectively, of the cells from the cytopathogenic effect of the virus. The toxicity of the compound was measured on the mock-infected cells and was expressed as CC50, which represents the concentration of compound required to inhibit the growth of the cells by 50%. The selectivity index (SI) (ratio CC50/EC50) is an indication of the selectivity of the anti-HIV activity of the inhibitor.
Background: Tetrazolium dyes change colour on reduction, which living cells bring about.

[4] abbreviates: MT4, wild type virus (IIIB), MT4 cells, MTT, read-out: HIV-AVE-MT4-MTT-IIIB-2-002 pEC50 (converted).

For `CC(C)CN(C[C@@H](O)[C@H](Cc1ccccc1)NC(=O)OCc1cncs1)S(=O)(=O)c1ccc2nc(NC(=O)c3ccncc3)sc2c1` [Compound 168], the values for the EC50 in experiment [1], in experiment [2] and in experiment [3] (setting [4]) were 31.6 nM, 135 nM and 24.5 nM, respectively. Take `CC(C)CN(C[C@@H](O)[C@H](Cc1ccccc1)NC(=O)O[C@H]1CO[C@H]2OCC[C@H]21)S(=O)(=O)c1ccc2nc(NC(=O)c3cncs3)sc2c1` [Compound 177]: the EC50 in experiment [1] was 7.59 nM; in experiment [2], 49 nM; in experiment [3] (setting [4]) it was 37.2 nM.

Turning to `CNCCNc1nc2ccc(S(=O)(=O)N(CC(C)C)C[C@@H](O)[C@H](Cc3ccccc3)NC(=O)OCc3cncs3)cc2s1` [Compound 150], the EC50 in experiment [1] is 162 nM; in experiment [2] it was 661 nM; in experiment [3] (setting [4]) it was 42.7 nM. For `CC(C)CN(C[C@@H](C)[C@H](Cc1ccccc1)NC(=O)OCc1cncs1)S(=O)(=O)c1ccc2nc(N(C)C(=O)c3ccncc3)sc2c1` [Compound 182] the same measures were 36.3 nM, 170 nM and 4.79 nM.

Regarding `Cc1cccc(C)c1OCC(=O)N[C@@H](Cc1ccccc1)[C@H](O)CN(CC(C)C)S(=O)(=O)c1ccc2nc(NC(=O)C3CCCN(C)C3)sc2c1` (stereo partly drawn) [Compound 128], the EC50 was 19.1 nM in experiment [1], 56.2 nM in experiment [2] and 5.89 nM in experiment [3] (setting [4]).

Turning to `CC(C)CN(C[C@@H](O)[C@H](Cc1ccccc1)NC(=O)OCc1cncs1)S(=O)(=O)c1ccc2nc(NC(=O)c3ccoc3)sc2c1` [Compound 164], the EC50 in experiment [1] is 33.9 nM; in experiment [2] it was 158 nM; in experiment [3] (setting [4]), 7.08 nM.

Regarding `CC(C)CN(C[C@@H](O)[C@H](Cc1ccccc1)NC(=O)OCc1cncs1)S(=O)(=O)c1ccc2nc(NCCN(C)C(=O)OC(C)(C)C)sc2c1` [Compound 149], in experiment [3] (setting [4]), the EC50 was 51.3 nM. With `CC(C)CN(C[C@@H](O)[C@H](Cc1ccccc1)NC(=O)O[C@H]1CO[C@H]2OCC[C@H]21)S(=O)(=O)c1ccc2nc(NCCN3CCCC3)sc2c1` [Compound 184], the EC50 in experiment [1] was 4.47 nM; in experiment [2], 26.9 nM; in experiment [3] (MT4, read-out: HIV-AVE-MT4-MTT-IIIB-2-002 pEC50 (converted)), 17.4 nM.

For `CC(C)CN(C[C@@H](O)[C@H](Cc1ccccc1)NC(=O)OC(C)(C)C)S(=O)(=O)c1ccc2nc(N3CCOCC3)sc2c1` [Compound 122], the EC50 in experiment [3] (setting [4]) is 1200 nM. Consider `CCOC(=O)Nc1nc2ccc(S(=O)(=O)N(CC(C)C)C[C@@H](O)[C@H](Cc3ccccc3)NC(=O)OCc3cncs3)cc2s1` [Compound 170], for which the EC50 is 17.4 nM in experiment [1], 162 nM in experiment [2] and 7.59 nM in experiment [3] (setting [4]). For `COC(=O)CCNc1nc2ccc(S(=O)(=O)N(CC(C)C)C[C@@H](O)[C@H](Cc3ccccc3)NC(=O)OC(C)(C)C)cc2s1` [Compound 143], the EC50 in experiment [1] was 10000 nM; in experiment [2] it was 10000 nM; in experiment [3] (setting [4]), 74.1 nM. On to `CC(C)CN(C[C@@H](O)[C@H](Cc1ccccc1)NC(=O)OCc1cncs1)S(=O)(=O)c1ccc2nc(NC(=O)OC(C)C)sc2c1` [Compound 167], for which the results for the EC50 in experiment [1], in experiment [2] and in experiment [3] (setting [4]) were 30.9 nM, 141 nM and 4.9 nM, respectively. Take `CC(=O)Nc1nc2ccc(S(=O)(=O)N(CC(C)C)C[C@@H](O)[C@H](Cc3ccccc3)NC(=O)COc3c(C)cc([N+](=O)[O-])cc3C)cc2s1` [Compound 104]: in experiment [3] (setting [4]), the EC50 was 66.1 nM. For the molecule `Cc1cccc(C)c1OCC(=O)N[C@@H](Cc1ccccc1)[C@H](O)CN(CC(C)C)S(=O)(=O)c1ccc2nc(N3CCOCC3)sc2c1` [Compound 136], the EC50 in experiment [3] (setting [4]) was 724 nM.

As for `CC(=O)NCCNc1nc2ccc(S(=O)(=O)N(CC(C)C)C[C@@H](O)[C@H](Cc3ccccc3)NC(=O)COc3c(C)cccc3C)cc2s1` [Compound 133], the EC50 in experiment [1] was 33.9 nM; in experiment [2] it was 158 nM; in experiment [3] (setting [4]), 21.4 nM. `CC(C)CN(C[C@@H](O)[C@H](Cc1ccccc1)NC(=O)[C@@H](NC(=O)CNCc1cccc(F)c1)C(C)(C)C)S(=O)(=O)c1ccc2nc(NCCN3CCCC3)sc2c1.O=C(O)C(F)(F)F.O=C(O)C(F)(F)F` [Compound 85, N′-[(3-fluorophenyl)methyl]glycyl-N-[(1S,2R)-2-hydroxy-3-[(2-methylpropyl)[[2-[2-(pyrrolidin-1-yl)ethylamino]benzothiazol-6-yl]sulfonyl]amino]-1-(phenylmethyl)propyl]-3-methyl-L-Valinamide, bis-trifluoroacetate]: the “HIV-AVE-MT4-MTT-IIIB-2-002 pEC50” value in experiment [3] (MT4 cells, MTT) amounted to 7.24. As for `CC(C)CN(C[C@@H](O)[C@H](Cc1ccccc1)NC(=O)OC(C)(C)C)S(=O)(=O)c1ccc2nc(N(C)CCN3CCCC3)sc2c1` [Compound 123], the EC50 in experiment [3] (setting [4]) is 1580 nM. Turning to `COC(=O)CCNc1nc2ccc(S(=O)(=O)N(CC(C)C)C[C@@H](O)[C@H](Cc3ccccc3)NC(=O)COc3c(C)cccc3C)cc2s1` [Compound 135], in experiment [3] (setting [4]), the EC50 is 66.1 nM. For `Cc1cccc(C)c1OCC(=O)N[C@@H](Cc1ccccc1)[C@H](O)CN(CC(C)C)S(=O)(=O)c1ccc2nc(N(C)CCCN(C)C)sc2c1` [Compound 109], the EC50 in experiment [1] was 4170 nM; in experiment [3] (setting [4]) it was 2090 nM. For the molecule `CC(C)CN(C[C@@H](O)[C@H](Cc1ccccc1)NC(=O)OC(C)(C)C)S(=O)(=O)c1ccc2nc(N3CCC[C@@H]3C(=O)O)sc2c1` [Compound 142], the EC50 in experiment [3] (setting [4]) is 5620 nM. `Cc1cccc(C)c1OCC(=O)N[C@@H](Cc1ccccc1)[C@H](O)CN(CC(C)C)S(=O)(=O)c1ccc2nc(N(C)CCCN3CCCC3)sc2c1` [Compound 138]: the EC50 in experiment [3] (setting [4]) is 1450 nM. Same read-out and setting: as for `Cc1cccc(C)c1OCC(=O)N[C@@H](Cc1ccccc1)[C@@H](CN(CC(C)C)S(=O)(=O)c1ccc2nc(NC(=O)c3ccccc3)sc2c1)OC(=O)c1ccncc1` [Compound 147], the figure is 339 nM. As to `CC(C)CN(C[C@@H](O)[C@H](Cc1ccccc1)NC(=O)O[C@@H]1COC2OCCNC21)S(=O)(=O)c1ccc2nc(NCCN3CCCC3)sc2c1` (stereo partly drawn) [Compound 101], the EC50 in experiment [3] (setting [4]) was 240 nM.

`Cc1cccc(C)c1OCC(=O)N[C@@H](Cc1ccccc1)[C@H](O)CN(CC(C)C)S(=O)(=O)c1ccc2nc(NCCc3ccccn3)sc2c1` [Compound 132]: in experiment [3] (setting [4]), the EC50 is 64.6 nM. The same measure, in the same setting: as for `CC(C)CN(C[C@@H](O)[C@H](Cc1ccccc1)NC(=O)OC(C)(C)C)S(=O)(=O)c1ccc2nc(NCCc3ccccn3)sc2c1` [Compound 120], the figure is 316 nM. For the molecule `CC(C)CN(C[C@@H](O)[C@H](Cc1ccccc1)NC(=O)OC(C)(C)C)S(=O)(=O)c1ccc2nc(NCc3ccccn3)sc2c1` [Compound 119], the “HIV-AVE-MT4-MTT-IIIB-2-002 pEC50” value in experiment [3] (MT4 cells, MTT) was 6.48. For the molecule `CC(C)CN(C[C@@H](O)[C@H](Cc1ccccc1)NC(=O)OC(C)(C)C)S(=O)(=O)c1ccc2nc(NCc3ccccn3)sc2c1` [Compound 118], the EC50 in experiment [3] (setting [4]) was 302 nM. Consider `Cc1cccc(C)c1OCC(=O)N[C@@H](Cc1ccccc1)[C@H](O)CN(CC(C)C)S(=O)(=O)c1ccc2nc(NCc3cccnc3)sc2c1` [Compound 130], for which the EC50 in experiment [3] (setting [4]) was 58.9 nM. Same read-out and setting: as for `Cc1cccc(C)c1OCC(=O)N[C@@H](Cc1ccccc1)[C@H](O)CN(CC(C)C)S(=O)(=O)c1ccc2nc(NCc3ccccn3)sc2c1` [Compound 129], the figure is 63.1 nM; as for `Cc1cccc(C)c1OCC(=O)N[C@@H](Cc1ccccc1)[C@H](O)CN(CC(C)C)S(=O)(=O)c1ccc2nc(N(C)CCN3CCOCC3)sc2c1` [Compound 137], 1700 nM. For `Cc1cccc(C)c1OCC(=O)N[C@@H](Cc1ccccc1)[C@H](O)CN(CC(C)C)S(=O)(=O)c1ccc2nc(NCC3CCCO3)sc2c1` (stereo partly drawn) [Compound 134], in experiment [3] (setting [4]), the EC50 is 61.7 nM.

Turning to `CC(C)CN(C[C@@H](O)[C@H](Cc1ccccc1)NC(=O)OC(C)(C)C)S(=O)(=O)c1ccc2nc(N(C)CCCN3CCCC3)sc2c1` [Compound 124], the EC50 in experiment [3] (setting [4]) was 2000 nM. In the case of `Cc1cccc(C)c1OCC(=O)N[C@@H](Cc1ccccc1)[C@H](O)CN(CC(C)C)S(=O)(=O)c1ccc2nc(NC(=O)c3ccccn3)sc2c1` [Compound 140], the “HIV-AVE-MT4-MTT-R13025-2-002 pEC50” value in experiment [1] (virus strain F (R13025), MT4 cells, MTT) amounted to 8.12. Besides, the “HIV-AVE-MT4-MTT-IIIB-2-002 pEC50” value in experiment [3] (MT4 cells, MTT) is on record as 8.34.
